The source of these data is ChEMBL document CHEMBL1201862, “PubChem BioAssay data set” (2004).

For orientation: EC50 means the concentration that produces a half-maximal response. One may read the AC50 as the midpoint of the concentration-response curve, whichever way the signal moves. By IC50 is commonly meant the concentration at which inhibition is half-maximal.

Test [1] in a line: Luminescence Cell-Based Dose Response to Identify Activators of 5'UTR Stem-Loop Driven Prion Protein mRNA Translation in H4-C Neuroglioblastoma Cells. [Related pubchem assays: 1829 (Project Summary), 1814 (Primary HTS)]. The class given is functional.
Test [2] is described as follows: Luminescence Cell-Based Dose Confirmation HTS to Identify Activators of 5'UTR Stem-Loop Driven Alpha-Synuclein mRNA Translation in H4 Neuroglioblastoma Cells. [Related pubchem assays: 1829 (Project Summary), 1814 (Primary HTS)]. It is filed as functional.
Test [3] in a line: Luminescence Cell-Based Dose Response HTS to Identify Activators of Luciferase Translation or Activity in H4 […] Cells. [Related pubchem assays: 1829 (Project Summary), 1814 (Primary HTS)]. The class given is functional.
The test system of test [4] is H4. Kind of test: Luminescence Cell-Based Dose Response HTS to Identify Activators of 5'UTR Stem-Loop Driven Prion Protein mRNA Translation in H4 Neuroglioblastoma Cells. [Related pubchem assays: 1829 (Project Summary), 1814 (Primary HTS)]. As to conditions: Homo sapiens. It is filed as functional.
The nature of test [5]: Luminescence Cell-Based Dose Response to Identify Activators of Luciferase Translation or Activity in H4-C Neuroglioblastoma Cells. [Related pubchem assays: 1829 (Project Summary), 1814 (Primary HTS)]. It is filed as functional.
Test [6] in a line: Luminescence Cell-Based Dose Confirmation to Identify Activators of 5'UTR Stem-Loop Driven Alpha-Synuclein mRNA Translation in H4 Neuroglioblastoma Cells. [Related pubchem assays: 1829 (Project Summary), 1814 (Primary HTS)]. It is filed as functional.
In test [7] the test system is HeLa. Put plainly: ATP-based viability loss in HeLa cells – cell-based, CellTiter-Glo luminescence, cherry-pick samples, cytotoxicity control for MITF activator project, dose response (AID 540259). It is filed as functional. As to conditions: Homo sapiens. Background: In ATP-based viability assays light output follows the ATP content of the culture.
Test [8] has as its target T1, RNA-binding protein pos-1 (Caenorhabditis elegans, UniProt G5EF15).
T1 sequence (G5EF15 whole entry): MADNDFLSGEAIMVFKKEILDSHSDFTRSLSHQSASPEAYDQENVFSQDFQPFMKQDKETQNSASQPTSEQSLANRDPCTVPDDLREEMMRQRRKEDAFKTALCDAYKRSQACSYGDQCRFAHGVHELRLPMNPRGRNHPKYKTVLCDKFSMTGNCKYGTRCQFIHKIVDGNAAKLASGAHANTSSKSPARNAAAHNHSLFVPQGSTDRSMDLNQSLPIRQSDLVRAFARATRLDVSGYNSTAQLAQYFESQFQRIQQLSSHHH
Kind of test: disruptors of C. elegans POS-1 RNA interaction – biochemical, fluorescence polarization, dose response (AID 1964).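 Also: purified POS-1 fused to maltose binding protein made in E. coli; potency of compounds blocking POS-1 binding to fluorescent RNA.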 On the technique in general: Polarisation of emitted light reports the rotation of a fluorescent probe.

Test [9] has as its system Streptococcus sp. 'group A'. Kind of test: Streptococcus pyogenes SK(-)GAS viability under kanamycin – luminescence, BacTiterGlo, confirmation, counter-screen for streptokinase expression inhibitor project, dose response (AID 1900). It is filed as functional, organism-based.
Test [10] has as its target T2, Zinc finger protein mex-5 (Caenorhabditis elegans, UniProt Q9XUB2).
T2 sequence (Q9XUB2 whole entry): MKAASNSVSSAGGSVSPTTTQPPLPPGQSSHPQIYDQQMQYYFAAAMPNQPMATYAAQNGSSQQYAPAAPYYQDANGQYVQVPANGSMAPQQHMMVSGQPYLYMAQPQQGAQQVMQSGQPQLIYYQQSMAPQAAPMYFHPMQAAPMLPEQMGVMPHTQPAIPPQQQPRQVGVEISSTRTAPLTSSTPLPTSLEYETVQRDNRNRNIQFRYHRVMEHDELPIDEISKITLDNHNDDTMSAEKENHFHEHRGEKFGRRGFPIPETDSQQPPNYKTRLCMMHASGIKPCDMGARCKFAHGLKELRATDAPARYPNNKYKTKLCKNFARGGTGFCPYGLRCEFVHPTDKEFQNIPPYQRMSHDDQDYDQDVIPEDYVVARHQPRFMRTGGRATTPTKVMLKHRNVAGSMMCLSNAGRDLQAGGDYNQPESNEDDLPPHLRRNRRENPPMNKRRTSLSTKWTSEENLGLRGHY
Put plainly: potency of MEX-5 RNA-binding blockers – biochemical, C. elegans, fluorescence polarization, dose response (AID 1960).

Test [11] has as its target T3, Streptokinase A (Streptococcus pyogenes serotype M1, UniProt P10520).
T3 sequence (P10520 whole entry): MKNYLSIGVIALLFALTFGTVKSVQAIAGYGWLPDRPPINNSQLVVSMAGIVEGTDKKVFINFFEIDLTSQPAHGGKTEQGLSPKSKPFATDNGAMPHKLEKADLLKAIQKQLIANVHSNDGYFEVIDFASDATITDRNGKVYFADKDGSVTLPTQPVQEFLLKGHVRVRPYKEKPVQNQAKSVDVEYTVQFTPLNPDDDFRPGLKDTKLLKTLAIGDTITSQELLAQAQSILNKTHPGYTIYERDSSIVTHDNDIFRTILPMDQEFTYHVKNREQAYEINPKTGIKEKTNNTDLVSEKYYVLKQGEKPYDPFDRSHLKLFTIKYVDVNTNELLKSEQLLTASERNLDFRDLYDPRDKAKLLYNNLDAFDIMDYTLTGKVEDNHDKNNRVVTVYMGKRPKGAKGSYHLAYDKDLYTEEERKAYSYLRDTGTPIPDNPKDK
Put plainly: viability-normalized secreted streptokinase activity reduction – plasminogen activation absorbance, OD405, dose response (AID 1914).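 Also: secreted streptokinase activity via plasminogen activation per viability signal from cell pellet.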 The class given is functional, Streptococcus pyogenes M1 GAS.

Test [12] can be described thus: antibacterial activity against E. coli NEB5alpha – luminescence, counter-screen for MEX-5/POS-1 RNA-binding inhibitor project, dose response (AID 1959). The class given is functional.
In test [13] the test system is Streptococcus. Put plainly: GAS UMAA2166 growth inhibition – luminescence, BacTiterGlo, counter-screen for streptokinase expression inhibitor project, dose response (AID 1915).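 Also: potency for reduction of bacterial viability or growth.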 The class given is functional, organism-based. Background: A counterscreen serves to expose hits that act by an unwanted route or on another target.
Test [14] deals with Protein-tyrosine kinase 2-beta (Homo sapiens, UniProt Q14289).
Sequence of Protein-tyrosine kinase 2-beta (Q14289 whole entry): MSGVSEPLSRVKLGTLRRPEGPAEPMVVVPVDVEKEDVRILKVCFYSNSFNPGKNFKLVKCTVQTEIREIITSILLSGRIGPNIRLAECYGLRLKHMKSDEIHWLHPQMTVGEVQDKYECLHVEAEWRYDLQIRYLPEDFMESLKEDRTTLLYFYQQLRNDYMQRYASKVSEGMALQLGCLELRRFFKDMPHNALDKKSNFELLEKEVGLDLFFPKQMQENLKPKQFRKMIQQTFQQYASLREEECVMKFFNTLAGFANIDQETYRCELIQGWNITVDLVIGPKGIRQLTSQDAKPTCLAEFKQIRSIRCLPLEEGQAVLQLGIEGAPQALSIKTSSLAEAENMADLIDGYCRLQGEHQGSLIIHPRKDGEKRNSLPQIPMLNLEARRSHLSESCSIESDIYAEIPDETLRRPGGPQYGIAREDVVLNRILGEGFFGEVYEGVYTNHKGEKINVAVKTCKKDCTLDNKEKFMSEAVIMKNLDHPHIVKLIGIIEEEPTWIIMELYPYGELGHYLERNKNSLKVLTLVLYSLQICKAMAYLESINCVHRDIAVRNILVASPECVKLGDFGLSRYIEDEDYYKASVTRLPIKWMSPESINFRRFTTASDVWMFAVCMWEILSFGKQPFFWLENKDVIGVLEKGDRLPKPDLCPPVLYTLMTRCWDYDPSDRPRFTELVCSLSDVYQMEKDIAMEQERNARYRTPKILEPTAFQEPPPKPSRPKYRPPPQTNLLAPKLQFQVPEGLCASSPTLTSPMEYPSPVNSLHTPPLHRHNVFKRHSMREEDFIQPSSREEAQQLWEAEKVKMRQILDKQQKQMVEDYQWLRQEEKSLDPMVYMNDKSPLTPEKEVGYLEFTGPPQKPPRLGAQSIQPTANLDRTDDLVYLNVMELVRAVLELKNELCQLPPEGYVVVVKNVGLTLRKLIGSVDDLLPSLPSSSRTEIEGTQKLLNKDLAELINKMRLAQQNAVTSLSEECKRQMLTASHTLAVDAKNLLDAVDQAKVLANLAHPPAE
For test [15], the target named is T4, Microphthalmia-associated transcription factor (Homo sapiens, UniProt O75030).
T4 sequence (O75030 whole entry): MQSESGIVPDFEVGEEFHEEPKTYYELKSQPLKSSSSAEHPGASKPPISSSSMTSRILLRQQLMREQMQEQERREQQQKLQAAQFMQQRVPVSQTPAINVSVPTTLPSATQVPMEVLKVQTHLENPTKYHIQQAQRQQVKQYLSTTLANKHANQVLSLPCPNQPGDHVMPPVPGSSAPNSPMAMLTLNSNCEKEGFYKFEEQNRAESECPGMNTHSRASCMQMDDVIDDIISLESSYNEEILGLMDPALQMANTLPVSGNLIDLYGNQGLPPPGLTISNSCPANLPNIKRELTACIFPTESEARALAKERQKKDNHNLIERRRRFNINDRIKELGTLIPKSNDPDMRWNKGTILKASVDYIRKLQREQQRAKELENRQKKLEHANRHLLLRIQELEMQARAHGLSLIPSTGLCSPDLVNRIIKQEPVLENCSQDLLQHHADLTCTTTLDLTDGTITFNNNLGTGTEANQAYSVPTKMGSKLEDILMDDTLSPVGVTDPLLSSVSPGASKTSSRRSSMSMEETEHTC
Put plainly: reducers of TRPM1 reporter luminescence, concentration series – cell-based, SK-MEL-5, cherry-picked, set 3, MITF inhibitor project, dose response (AID 493073).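 Also: SK-MEL-5 melanoma cells with luciferase driven by the MITF target TRPM1 promoter.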 It is filed as functional.

For test [16], the target named is T5, Bcl-2-related protein A1 (Mus musculus, UniProt Q07440). Kind of test: small-molecule antagonists of Bfl-1/BH3 interaction – biochemical, TR-FRET, mouse Bfl-1, confirmation (AID 621).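 Also: TR-FRET binding of GST-Bfl-1 to FITC-labelled Bid peptide via terbium antibody.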
T5 sequence (Q07440 whole entry): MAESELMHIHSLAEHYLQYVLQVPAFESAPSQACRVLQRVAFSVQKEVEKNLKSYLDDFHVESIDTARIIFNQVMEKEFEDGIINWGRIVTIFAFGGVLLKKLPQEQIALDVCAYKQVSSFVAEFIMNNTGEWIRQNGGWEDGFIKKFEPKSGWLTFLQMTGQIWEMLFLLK
The target of test [17] is T5, Bcl-2-related protein A1. Kind of test: Bfl-1 binding inhibitors, SAR follow-up, biochemical, fluorescence polarization (AID 1070).
Test [18] in a line: NIH-3T3 fibroblast cytotoxicity, dose response, cytotoxicity control, cell-based, fluorescence, Alamar Blue, secondary assay (AID 2327).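 Also: NIH-3T3 mouse fibroblasts cultured with fluconazole at 8 µg/mL.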 It is filed as functional.
A short description of test [19]: fluconazole-exposed Candida albicans growth modulators – fluorescence, retest, confirmation (AID 2467). The class given is functional, cell-based.
The nature of test [20]: Trypanosoma cruzi growth suppression in host cells – NIH3T3 host cells, beta-gal luminescence, confirmation (AID 2044).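 Also: intracellular parasites grown in NIH/3T3 mouse fibroblasts as host cells; luminescent beta-galactosidase reporter signal from transgenic T. cruzi replicating inside host cells; inhibitors lower the luminescence signal.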 It is filed as functional, cell-based.
A short description of test [21]: viability of PTEN-deleted HCT116 cells – cell-based, HCT116 PTEN knockout, dose response (AID 1047).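 Also: HCT116 colon tumor cells with PTEN knocked out; cells exposed to compound for 60 hours before readout; potency for loss of cell viability measured by luminescence.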 The class given is functional.
Test [22] addresses T6, Serine/threonine-protein phosphatase (Candida dubliniensis (strain CD36 / CBS 7987 / NCPF 3949 / NRRLY-17841) (Yeast), UniProt B9W6M3).
T6 sequence (B9W6M3 whole entry): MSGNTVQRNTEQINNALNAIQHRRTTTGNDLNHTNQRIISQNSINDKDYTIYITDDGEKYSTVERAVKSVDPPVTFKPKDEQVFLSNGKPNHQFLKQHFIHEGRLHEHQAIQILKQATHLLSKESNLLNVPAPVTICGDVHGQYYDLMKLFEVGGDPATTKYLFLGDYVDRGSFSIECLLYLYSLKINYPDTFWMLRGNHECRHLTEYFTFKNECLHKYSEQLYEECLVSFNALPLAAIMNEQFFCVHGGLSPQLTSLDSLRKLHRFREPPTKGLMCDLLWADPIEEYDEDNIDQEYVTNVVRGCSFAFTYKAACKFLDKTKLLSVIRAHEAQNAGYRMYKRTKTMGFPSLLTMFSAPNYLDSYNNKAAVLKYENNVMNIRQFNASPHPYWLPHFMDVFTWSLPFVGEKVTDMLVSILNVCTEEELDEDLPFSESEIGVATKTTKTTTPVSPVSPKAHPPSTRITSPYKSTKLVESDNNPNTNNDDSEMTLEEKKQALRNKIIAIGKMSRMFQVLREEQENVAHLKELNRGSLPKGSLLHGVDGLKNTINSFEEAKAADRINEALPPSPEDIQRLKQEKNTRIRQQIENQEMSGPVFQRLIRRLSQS
Put plainly: blockers of CaCl2-induced CDRE-lacZ signaling – S. cerevisiae, luminescence, secondary, dose response (AID 2388).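 Also: yeast reporter cells carrying a calcineurin-responsive lacZ construct stimulated with calcium chloride; luminescent beta-galactosidase reporter signal in whole cells rather than isolated phosphatase activity; potency for inhibition where a drop in reporter signal means calcineurin blockade.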 The class given is functional, cell-based.

Test [23] can be described thus: NIH3T3 cell viability loss – ATP luminescence, mouse fibroblasts, counter-screen, dose response (AID 2010).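 Also: cells exposed to compound for about 90 hours before reading.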 It is filed as functional, cell-based.
Test [24] can be described thus: viability of HCT116 lacking mutant beta-catenin – cell-based, human colon tumor, dose response (AID 1045).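 Also: HCT116 colon tumor cells with beta catenin knocked out; cells exposed to compound for 60 hours.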 The class given is functional.
Test [25] has as its target ATP-dependent molecular chaperone HSP82 (Candida albicans (strain WO-1) (Yeast), UniProt C4YTQ8). Put plainly: steroid-induced GRE reporter decrease in yeast – S. cerevisiae, luminescence, Hsp90 inhibitor project, dose response (AID 2400).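 Also: beta-galactosidase luminescence from glucocorticoid response element reporter as proxy for Hsp90 function; inhibitor potency where signal loss means Hsp90 inhibition.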 The class given is functional, cell-based.
The nature of test [26]: cells.

Active and inactive are the calls of the source. Rule as the data show it, for most assays here: actives have a measured EC50 and inactives only a lower limit.

Sequence of ATP-dependent molecular chaperone HSP82 (C4YTQ8 whole entry): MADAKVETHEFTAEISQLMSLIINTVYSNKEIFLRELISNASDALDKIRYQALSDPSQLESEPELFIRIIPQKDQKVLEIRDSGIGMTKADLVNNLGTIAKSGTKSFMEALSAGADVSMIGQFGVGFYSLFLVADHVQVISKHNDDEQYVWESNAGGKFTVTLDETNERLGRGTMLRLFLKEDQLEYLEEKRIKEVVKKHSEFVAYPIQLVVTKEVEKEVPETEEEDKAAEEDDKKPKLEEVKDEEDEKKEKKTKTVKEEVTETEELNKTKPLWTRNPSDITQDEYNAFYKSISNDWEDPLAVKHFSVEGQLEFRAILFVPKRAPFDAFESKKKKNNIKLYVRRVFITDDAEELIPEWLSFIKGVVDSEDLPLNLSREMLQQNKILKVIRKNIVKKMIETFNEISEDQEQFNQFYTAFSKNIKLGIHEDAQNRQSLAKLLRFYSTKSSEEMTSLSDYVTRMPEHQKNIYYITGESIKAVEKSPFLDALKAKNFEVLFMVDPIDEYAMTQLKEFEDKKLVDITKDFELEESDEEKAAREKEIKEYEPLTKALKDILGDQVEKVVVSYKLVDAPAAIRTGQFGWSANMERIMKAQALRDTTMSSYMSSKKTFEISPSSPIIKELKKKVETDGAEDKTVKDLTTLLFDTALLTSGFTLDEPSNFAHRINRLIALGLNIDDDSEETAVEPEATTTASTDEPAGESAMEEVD

For `CS(=O)(=O)N1N=C(c2ccc(Br)cc2)CC1c1ccc2c(c1)OCO2` (stereo not drawn), the EC50 in [1] is 0.328 µM (active); in [2] it was 0.174 µM (active); in [3], < 0.1 µM (active); in test [4], < 0.1 µM (active); in test [5], 0.344 µM (active); in test [6], 0.467 µM (active). The AC50 in test [7] is 61.3 µM (active).

`Cc1ccc(C(=O)C2=C(O)C(=O)N(Cc3ccco3)C2c2cccc(Br)c2)o1` (stereo not drawn): the EC50 in [8] is > 300 µM (not active); in [9], 6.16 µM (active); in test [10], 35.6 µM (active); in test [11] it was > 150 µM (not active); in test [12], 18.3 µM (inconclusive); in test [13], 11.2 µM (active).

As for `CCOc1cc(/C=C2/NC(=S)NC2=O)ccc1OCc1ccc([N+](=O)[O-])cc1`, the EC50 in test [9] is 3.85 µM (active); in test [11], 8.31 µM (active); in test [13] it was > 150 µM (not active). The IC50 in [14] is 3.76 µM (active). For the same molecule, the AC50 in test [15] was 8.19 µM (active).

As for `Clc1ccc(-n2nnc(-c3cc4ccccc4nc3Cl)n2)cn1`, the IC50 in [16] and in test [17] was > 100 µM (not active) in each case.

With `O=C(CNc1ccc2ccccc2c1)N/N=C/c1ccc([N+](=O)[O-])o1`, the EC50 was > 160 µM (inactive) in test [18]; 11.1 µM (active) in test [9]; > 150 µM (not active) in [11]; 3.85 µM (active) in test [19]; < 0.1 µM (active) in test [20]; 14.2 µM (active) in test [21]. In addition, the EC50 in test [22] was > 180 µM (inactive); in test [23], > 60 µM (not active); in [24], 15.9 µM (active); in test [13], > 150 µM (not active); in [25], > 160 µM (inactive); in test [26] it was 0.019 µM (active). Also, in [15], the AC50 was 4.95 µM (active).
